Common to all, as to assay: NCI-60 cell line screen, 48 h
The subject of test [1] is MALME-3M melanoma.
Test [2] has as its system LOX IMVI melanoma.
Test [3] has as its system MDA-N.
The test system of test [4] is MDA-MB-435.
For test [5], the system named is SW-620 colon.
In test [6] the test system is TK-10 renal.
The test system of test [7] is EKVX NSCLC.
Test [8] has as its system K-562 leukemia.
Test [9] deals with SF-539 CNS.
Test [10] relates to ACHN renal.

The structures appear in SMILES notation.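 Following 48 hours of exposure in 96-well plates, responses at five concentrations were used to interpolate endpoints linearly. Definition used: TGI = concentration required for complete inhibition of growth.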 Some results are limits rather than exact numbers.

Here are results for nine compounds from PubChem BioAssay (NCI).

As for `CC(C)NC(=O)OCc1c(COC(=O)NC(C)C)n(C)c2c1ccc1cc(Cl)c(Cl)cc12`, the TGI in [1] was 22.7 µM; in test [2], 20.9 µM; in [3], 26.5 µM; in test [4], 19.5 µM; in test [5], 23.5 µM; in test [6], 19.4 µM. For the same compound, the TGI in [7] was 41.9 µM; in [8], above 100 µM; in test [9], 27.1 µM; in test [10], 24 µM.
As to `CC1=[N+]([O-])C2(CCCC2)N(O)C1(C)C`, the TGI in test [1], in [2], in [3], in [4], in test [5] and in [6] was above 100 µM throughout. In addition, the TGI in test [7], in [8], in [9] and in test [10] was above 100 µM throughout.
`O=C(O[C@@H](/C=C/c1ccccc1)P1(=O)N(Cc2ccccc2)[C@@H]2CCCC[C@H]2N1Cc1ccccc1)c1ccccc1`: the TGI in test [1] is above 100 µM; in test [2], 11.1 µM; in test [3], above 100 µM; in test [4] it was 68.7 µM; in [5], above 100 µM; in test [6] it was above 100 µM. The TGI in test [7], in test [8], in test [9] and in test [10] was above 100 µM throughout.
In the case of `Clc1sc(Cl)c2c1[C@H](Br)C[C@@H]2Cl`, the TGI in test [1] is 49.4 µM; in test [2] it was 49.5 µM; in test [3], above 100 µM; in test [4] it was 40.8 µM; in [5] it was 45.6 µM; in test [6], 87.7 µM. In addition, the TGI is above 100 µM in test [7], above 100 µM in test [8], 37.1 µM in [9] and 37.4 µM in [10].
As to `COc1ccc(CCn2ccc(=O)c(O)c2C)cc1OC`, the TGI was 91 µM in test [1]; 78.9 µM in test [2]; above 100 µM in [3]; above 100 µM in test [4]; above 100 µM in test [5]; above 100 µM in test [6]. Further, the TGI was above 100 µM in test [7], above 100 µM in test [8], 73.9 µM in test [9] and above 100 µM in test [10].
As to `O=C1C=CC(=O)c2c(O)c(N3CCN(c4ncccn4)CC3)c(Cl)c(O)c21`, the TGI in test [1] was 3.63 µM; in test [2] it was 3.55 µM; in test [3], 3.75 µM; in test [4], 3.29 µM; in test [5], 2.97 µM; in test [6], 3.47 µM. Also, the TGI in test [7] was 24.8 µM; in test [8] it was 5.07 µM; in test [9], 3.63 µM; in test [10], 5.42 µM.
`Brc1ccc(/C(N=N/C(=N\Sc2ccccc2)c2ccc(Br)cc2)=N/Sc2ccccc2)cc1`: the TGI in test [1], in test [2], in test [3], in [4], in test [5] and in [6] was above 100 µM in each case. The TGI in test [7], in test [8], in test [9] and in [10] was above 100 µM throughout.
For `CC(=O)Nc1ccc2c(c1)nc1c3ccccc3ccn21`, the TGI in test [1], in test [2], in test [3], in test [4], in [5] and in test [6] was above 100 µM in each case. In addition, the TGI in test [7], in [8], in test [9] and in [10] was above 100 µM each time.
As for `COC(=O)[C@@H]1[C@H]2CC[C@]3(C)[C@@H](OC(C)=O)CC[C@H]3[C@@H]2CC[C@H]1C1(C)SCCS1`, the TGI in test [1] was 38.9 µM; in test [2], 34.6 µM; in test [3], 47.3 µM; in test [4], 35.3 µM; in [5], above 100 µM; in test [6], above 100 µM. The TGI in [7] was 74.4 µM; in test [8], 94 µM; in test [9], above 100 µM; in test [10] it was above 100 µM.
